Reference: ChEMBL document CHEMBL1201862, “PubChem BioAssay data set” (2004)
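Test compounds were applied to cells in 96-well plates for 48 hours at 5 doses. GI50: concentration for 50% inhibition of growth.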 The source made the active and inactive calls. No stated cut-off is given here; in the data, active = GI50 up to about 1.1 µM and inactive = higher.

What was measured:
Experiment in all cases: growth of human tumour cells (NCI), 48 h
[1] = system: SK-MEL-2
[2] = system: CCRF-CEM
[3] = system: RPMI-8226
[4] = system: SF-268
[5] = system: HCT-15
[6] = system: NCI-H226
[7] = system: SN12C
[8] = system: UO-31
[9] = system: M14
[10] = system: K562
[11] = system: KM-20L2
[12] = system: OVCAR-5
[13] = system: ACHN
[14] = system: KM12
[15] = system: NCI-H23
[16] = system: HL-60
[17] = system: LOX IMVI
[18] = system: CAKI-1
[19] = system: BT-549
[20] = system: PC-3

| Compound | GI50 [1] | GI50 [2] | GI50 [3] | GI50 [4] | GI50 [5] | GI50 [6] | GI50 [7] | GI50 [8] | GI50 [9] | GI50 [10] | GI50 [11] | GI50 [12] | GI50 [13] | GI50 [14] | GI50 [15] | GI50 [16] | GI50 [17] | GI50 [18] | GI50 [19] | GI50 [20] |
| --- | --- | --- | --- | --- | --- | --- | --- | --- | --- | --- | --- | --- | --- | --- | --- | --- | --- | --- | --- | --- |
| Cc1ccccc1N(CCC#N)C1=NN(C(=O)CC(=O)Nc2ccccc2)C(c2ccccc2)C1 (stereo not given) | > 100 µM (inactive) | > 100 µM (inactive) | > 100 µM (inactive) | > 100 µM (inactive) | > 100 µM | > 100 µM (inactive) | > 100 µM (inactive) | > 100 µM (inactive) | > 100 µM (inactive) | > 100 µM (inactive) | > 100 µM (inactive) | > 100 µM (inactive) | > 100 µM (inactive) | > 100 µM (inactive) | > 100 µM (inactive) | > 100 µM (inactive) |  |  |  |  |
| c1ccc2cc(C3NCCc4nc[nH]c43)ccc2c1 (stereo not given) | 72.8 µM (inactive) | 35.6 µM (inactive) | 45.5 µM (inactive) | > 100 µM (inactive) | 42.6 µM | > 100 µM (inactive) | 97.5 µM (inactive) | 35.8 µM (inactive) | 39.9 µM (inactive) | 29.6 µM (inactive) | 42.7 µM (inactive) | > 100 µM (inactive) | 23.5 µM (inactive) | 17.3 µM (inactive) | > 100 µM (inactive) |  | 71.6 µM (inactive) | 60.3 µM (inactive) |  |  |
| Cc1ccc(-c2cc(=O)c3cc(C)c(C)c(C(=O)O)c3o2)cc1 | > 100 µM (inactive) | > 100 µM (inactive) | > 100 µM (inactive) | > 100 µM (inactive) | > 100 µM |  | > 100 µM (inactive) | > 100 µM (inactive) | > 100 µM (inactive) | > 10 µM (inactive) | > 100 µM (inactive) | > 100 µM (inactive) | > 100 µM (inactive) | > 100 µM (inactive) | > 100 µM (inactive) |  | > 100 µM (inactive) |  |  |  |
| Nc1ncc(Sc2ccccc2C(=O)O)s1 | > 100 µM (inactive) | > 100 µM (inactive) | > 100 µM (inactive) | > 100 µM (inactive) | > 100 µM | > 100 µM (inactive) | > 100 µM (inactive) | > 100 µM (inactive) | > 100 µM (inactive) | > 100 µM (inactive) |  | > 100 µM (inactive) | > 100 µM (inactive) | > 100 µM (inactive) | > 100 µM (inactive) | > 100 µM (inactive) | > 100 µM (inactive) | > 100 µM (inactive) | > 100 µM (inactive) | > 100 µM (inactive) |
| O=C1c2cccc3cc4ccccc4c(c23)C(=O)N1CCCNCCNCCCN1C(=O)c2cccc3cc4ccccc4c(c23)C1=O | 0.338 µM (active) | < 0.01 µM (active) | < 0.01 µM (active) | 0.196 µM (active) | 0.103 µM | 0.411 µM (active) | < 0.01 µM (active) | 0.33 µM (active) | 0.177 µM (active) | < 0.01 µM (active) |  | 0.257 µM (active) | < 0.0227 µM (active) | 0.106 µM (active) | 0.0509 µM (active) | < 0.0171 µM (active) | < 0.01 µM (active) | 0.141 µM (active) | 1.24 µM (inactive) | 0.152 µM (active) |
| CSc1c(CC(=O)Nc2ccc(Cl)cc2)n(Cc2ccccc2)c2ccccc12 | 14.2 µM (inactive) | 40.3 µM (inactive) | 67.5 µM (inactive) | 12.9 µM (inactive) | 30.5 µM | 20.8 µM (inactive) | 32 µM (inactive) | 34.3 µM (inactive) | 58.2 µM (inactive) | 28 µM (inactive) |  | 29.6 µM (inactive) | 24.7 µM (inactive) | > 100 µM (inactive) | 29.1 µM (inactive) | > 100 µM (inactive) | 38 µM (inactive) | 22.8 µM (inactive) | 15.1 µM (inactive) | 11 µM (inactive) |
| COc1cc2c(cc1O)C1Cc3ccc(OC)c(O)c3C[N+]1(C)CC2 (stereo not given) | > 100 µM (inactive) | 45 µM (inactive) | > 100 µM (inactive) | > 100 µM (inactive) | > 100 µM | > 100 µM (inactive) | > 100 µM (inactive) | > 100 µM (inactive) | > 100 µM (inactive) | 58.3 µM (inactive) |  | > 100 µM (inactive) | > 100 µM (inactive) | > 100 µM (inactive) | > 100 µM (inactive) | > 100 µM (inactive) | > 100 µM (inactive) | > 100 µM (inactive) | > 100 µM (inactive) | > 100 µM (inactive) |
| COc1cc(CNCc2cc(OC)c(OC)c(OC)c2)cc(OC)c1OC | > 10 µM (inactive) | 2.37 µM (inactive) | 9.73 µM (inactive) | > 10 µM (inactive) | > 10 µM | > 10 µM (inactive) | > 10 µM (inactive) | > 10 µM (inactive) | > 10 µM (inactive) | > 4.95 µM (inactive) |  | > 10 µM (inactive) | > 10 µM (inactive) | > 10 µM (inactive) | > 10 µM (inactive) | > 4.62 µM (inactive) | > 8.38 µM (inactive) | > 10 µM (inactive) | > 10 µM (inactive) | > 10 µM (inactive) |
| COc1cc(/C=C2\CCC/C(=C\c3cc(OC)c(O)c(OC)c3)C2=O)cc(OC)c1O | 2.4 µM (inactive) | 0.43 µM (active) | 1.55 µM (inactive) | 2.61 µM (inactive) | 1.52 µM | 10.4 µM (inactive) | 2.32 µM (inactive) | 1.69 µM (inactive) | 1.88 µM (inactive) | 4.81 µM (inactive) |  | 2.05 µM (inactive) | 1.22 µM (inactive) | 1.38 µM (inactive) | 1.35 µM (inactive) | 1.72 µM (inactive) | 1.91 µM (inactive) | 1.84 µM (inactive) | 1.53 µM (inactive) | 3.35 µM (inactive) |
| COc1ccc(N2C(=O)CC(c3c[nH]c4ncccc34)C2=O)cc1 (stereo not given) | 36.1 µM (inactive) | 6.4 µM (inactive) | > 100 µM (inactive) | > 100 µM (inactive) | 24.8 µM | > 100 µM (inactive) | 18.5 µM (inactive) | 32.4 µM (inactive) | 23 µM (inactive) | 8.09 µM (inactive) |  | 63.2 µM (inactive) | 21.2 µM (inactive) | > 100 µM (inactive) | 24.2 µM (inactive) | 11.5 µM (inactive) | > 100 µM (inactive) | 19.7 µM (inactive) | 17.5 µM (inactive) | 19.4 µM (inactive) |
| Oc1ccc(Cl)cc1Sc1cc(Cl)ccc1O [FENTICLOR] | 10.5 µM (inactive) | 5.92 µM (inactive) | 3.32 µM (inactive) | 10.3 µM (inactive) | 8.65 µM | 20.5 µM (inactive) | 10.5 µM (inactive) | 6.78 µM (inactive) | 12.9 µM (inactive) | 8.34 µM (inactive) |  | 13.4 µM (inactive) | 8.65 µM (inactive) | 17.5 µM (inactive) | 5.04 µM (inactive) | 7.87 µM (inactive) | 8.55 µM (inactive) | 17.9 µM (inactive) | 12.9 µM (inactive) | 15.3 µM (inactive) |
